Assay results from patent US20150313225A1.
Read-outs that look alike come from different tables or passages of the source.

Columns and labels:
Format in all cases: cell-based
Phytophthora infestans = test: microbe, parasite or virus in culture
Alternaria solani = test: Microtest against early blight caused by Alternaria solani (Alteso); details: solo product; for inhibition of growth at 4e-06 ppm: 0.000004 ppm; for inhibition of growth at 6.3e-05 ppm: 0.000063 ppm
Septoria tritici = test: Microtest against leaf blotch on wheat caused by Septoria tritici (Septtr); details: solo product; for inhibition of growth at 1.6e-05 ppm: 0.000016 ppm
Botrytis cinerea = test: Microtiterplate test against the grey mold Botrytis cinerea (Botrci); details: solo product
Leptosphaeria nodorum = test: Microtest against wheat leaf spots caused by Leptosphaeria nodorum (Leptno); details: Parastagonospora nodorum, 168 h, solo product, read-out: Observed efficacy
Pyricularia oryzae = test: microbe, parasite or virus in culture
[1] = Phytophthora infestans, 168 h, read-out: Observed efficacy
[2] = Alternaria solani, 168 h, 0.063 ppm, read-out: Observed efficacy
[3] = Zymoseptoria tritici, 168 h, 0.001 ppm, read-out: Observed efficacy
[4] = Botrytis cinerea, 168 h, 0.25 ppm, read-out: Observed efficacy
[5] = Botrytis cinerea, 168 h, read-out: Observed efficacy
[6] = Alternaria solani, 168 h, read-out: Observed efficacy
[7] = Zymoseptoria tritici, 168 h, read-out: Observed efficacy
[8] = Zymoseptoria tritici, 168 h, […], read-out: Observed efficacy
[9] = Botrytis cinerea, 168 h, 0.063 ppm, read-out: Observed efficacy
[10] = Pyricularia oryzae, 168 h, read-out: Observed efficacy
[11] = Botrytis cinerea, 168 h, 4 ppm, read-out: Observed efficacy
[12] = Botrytis cinerea, 168 h, 16 ppm, read-out: Observed efficacy

## CCCC(Cn1cncn1)(OC)c1ccc(Oc2ccc(Cl)cc2)cc1Cl (stereo not drawn) [I-22, 1-[2-[2-chloro-4-(4-chlorophenoxy)phenyl]-2-methoxy-pentyl]-1,2,4-triazole]
Phytophthora infestans; [1]
  inhibition of growth at 63 ppm: 41%
Alternaria solani; [2]
  inhibition of growth at […]: 25%
Septoria tritici; [3]
  inhibition of growth at 0.001 ppm: 10%
Botrytis cinerea; [4]
  inhibition of growth at […]: 1%
Botrytis cinerea; [5]
  inhibition of growth at 1 ppm: 34%
Leptosphaeria nodorum; 0.063 ppm
  inhibition of growth at […]: 25%

## C#CCC(O)(Cn1cncn1)c1ccc(Oc2ccc(Cl)cc2)cc1Cl (stereo not drawn) [I-25, 2-[2-chloro-4-(4-chlorophenoxy)phenyl]-1-(1,2,4-triazol-1-yl)pent-4-yn-2-ol]
Phytophthora infestans; [1]
  inhibition of growth at 16 ppm: 0%
Alternaria solani; [6]
  inhibition of growth at 4e-06 ppm: 7%
  inhibition of growth at 6.3e-05 ppm: 1%
Septoria tritici; [7]
  inhibition of growth at 1.6e-05 ppm: 12%
Septoria tritici; [3]
  inhibition of growth at 0.001 ppm: 37%
Septoria tritici; [8]
  inhibition of growth at 6.3e-05 ppm: 12%
Botrytis cinerea; Botrytis cinerea, 168 h, 0.004 ppm, read-out: Observed efficacy
  inhibition of growth at 0.004 ppm: 9%
Botrytis cinerea; Botrytis cinerea, 168 h, 0.016 ppm, read-out: Observed efficacy
  inhibition of growth at 0.016 ppm: 16%
Botrytis cinerea; [9]
  inhibition of growth at […]: 23%
Botrytis cinerea; [4]
  inhibition of growth at […]: 49%
Leptosphaeria nodorum; 0.000004 ppm
  inhibition of growth at 4e-06 ppm: 14%
Leptosphaeria nodorum; 0.000016 ppm
  inhibition of growth at 1.6e-05 ppm: 22%

## CC(O)(Cn1cncn1)c1ccc(Oc2ccc(Cl)cc2)cc1Cl (stereo not drawn) [I-17, 2-[2-chloro-4-(4-chlorophenoxy)phenyl]-1-(1,2,4-triazol-1-yl)propan-2-ol]
Phytophthora infestans; [1]
  inhibition of growth at 16 ppm: 5%
Alternaria solani; [6]
  inhibition of growth at 4e-06 ppm: 6%
  inhibition of growth at 6.3e-05 ppm: 0%
Alternaria solani; Alternaria solani, 168 h, 0.000016 ppm, read-out: Observed efficacy
  inhibition of growth at 1.6e-05 ppm: 0%
Septoria tritici; Zymoseptoria tritici, 168 h, 0.000001 ppm, read-out: Observed efficacy
  inhibition of growth at 1e-06 ppm: 14%
Septoria tritici; Zymoseptoria tritici, 168 h, 0.000004 ppm, read-out: Observed efficacy
  inhibition of growth at 4e-06 ppm: 12%
Septoria tritici; [7]
  inhibition of growth at 1.6e-05 ppm: 19%
Septoria tritici; [8]
  inhibition of growth at 2.5e-07 ppm: 10%
Botrytis cinerea; Botrytis cinerea, 168 h, 0.000063 ppm, read-out: Observed efficacy
  inhibition of growth at 6.3e-05 ppm: 9%
Botrytis cinerea; [9]
  inhibition of growth at […]: 0%
Botrytis cinerea; [4]
  inhibition of growth at […]: 0%
Pyricularia oryzae; [10]
  inhibition of growth at 1 ppm: 61%

## N#Cc1c(Cl)c(Cl)c(Cl)c(C#N)c1Cl [II-11, chlorothalonil, reference compound]
Phytophthora infestans; [1]
  inhibition of growth at 0.016 ppm: 2%
Alternaria solani; [2]
  inhibition of growth at […]: 4%
Alternaria solani; Alternaria solani, 168 h, 0.25 ppm, read-out: Observed efficacy
  inhibition of growth at […]: 2%
Botrytis cinerea; [5]
  inhibition of growth at 1 ppm: 23%
Botrytis cinerea; [11]
  inhibition of growth at 4 ppm: 41%
Leptosphaeria nodorum; 1 ppm
  inhibition of growth at 1 ppm: 28%

## COC(=O)N(OC)c1ccccc1COc1ccn(-c2ccc(Cl)cc2)n1 [II-66, pyraclostrobin, reference compound]
Phytophthora infestans; [1]
  inhibition of growth at 0.016 ppm: 9%
Alternaria solani; Alternaria solani, 168 h, 0.004 ppm, read-out: Observed efficacy
  inhibition of growth at 0.004 ppm: 8%
Septoria tritici; [3]
  inhibition of growth at 0.001 ppm: 12%
Septoria tritici; Zymoseptoria tritici, 168 h, 0.004 ppm, read-out: Observed efficacy
  inhibition of growth at 0.004 ppm: 37%
Septoria tritici; [8]
  inhibition of growth at 6.3e-05 ppm: 7%
Botrytis cinerea; [11]
  inhibition of growth at 4 ppm: 29%
Botrytis cinerea; [12]
  inhibition of growth at 16 ppm: 66%
Pyricularia oryzae; [10]
  inhibition of growth at 0.004 ppm: 59%

## CO/C=C(/C(=O)OC)c1ccccc1Oc1cc(Oc2ccccc2C#N)ncn1 [II-3, azoxystrobin, reference compound]
Phytophthora infestans; solo product, 0.016 ppm
  Observed efficacy: 2
Alternaria solani; 0.004 ppm
  Observed efficacy: 6
Alternaria solani; 0.016 ppm
  Observed efficacy: 14
Septoria tritici; 0.001 ppm
  Observed efficacy: 12
Botrytis cinerea; 4 ppm
  Observed efficacy: 14
Botrytis cinerea; 16 ppm
  Observed efficacy: 23
Pyricularia oryzae; solo product, 0.004 ppm
  Observed efficacy: 1

## Cc1ccc(-c2c(Cl)nc(C#N)n2S(=O)(=O)N(C)C)cc1 [II-12, cyazofamid, reference compound]
Phytophthora infestans; [1]
  inhibition of growth at 0.004 ppm: 8%
Alternaria solani; Alternaria solani, 168 h, 4 ppm, read-out: Observed efficacy
  inhibition of growth at 4 ppm: 14%
Alternaria solani; Alternaria solani, 168 h, 16 ppm, read-out: Observed efficacy
  inhibition of growth at 16 ppm: 35%
Septoria tritici; Zymoseptoria tritici, 168 h, 16 ppm, read-out: Observed efficacy
  inhibition of growth at 16 ppm: 40%
Botrytis cinerea; [12]
  inhibition of growth at 16 ppm: 24%
Pyricularia oryzae; [10]
  inhibition of growth at 4 ppm: 9%
